Laboratory results from ChEMBL document CHEMBL1158642, “Syntheses and biological evaluation of ring-C modified colchicine analogs” (Bioorg Med Chem Lett, 2010).
Activity calls are given as the source filed them. No cut-off for these calls is given here.

Legend:
MCF7 = assay: Cytotoxicity against human MCF7 cells after 72 hrs by crystal violet staining; assay type: functional, cell-based; conditions: MCF7, 72 h
PC-3 = assay: Cytotoxicity against human PC3 cells after 72 hrs by crystal violet staining; assay type: functional, cell-based; conditions: PC-3, 72 h
[1] = Inhibition of microtubule polymerization at 10 uM after 10 mins

CCc1cccc(N2O[C@H]3C(=O)C(OC)=C[C@H]2C2=C3[C@@H](NC(C)=O)CCc3cc(OC)c(OC)c(OC)c32)n1
IC50 (MCF7): 22 nM
IC50 (PC-3): 23 nM

COC1=C[C@H]2C3=C([C@@H](ON2c2cccc(C)n2)C1=O)[C@@H](NC(C)=O)CCc1cc(OC)c(OC)c(OC)c13
Activity [1]: Active
IC50 (MCF7): 20 nM
IC50 (PC-3): 25 nM

COC1=C[C@H]2C3=C([C@@H](ON2c2cc(C)ccn2)C1=O)[C@@H](NC(C)=O)CCc1cc(OC)c(OC)c(OC)c13
IC50 (MCF7): 10 nM
IC50 (PC-3): 14 nM

COC1=C[C@@H]2ON(c3cnoc3C)[C@@H](C1=O)C1=C2c2c(cc(OC)c(OC)c2OC)CC[C@@H]1NC(C)=O
Activity [1]: inactive
IC50 (MCF7): 250 nM
IC50 (PC-3): 245 nM

COC1=C[C@H]2C3=C([C@@H](ON2c2cc(C)on2)C1=O)[C@@H](NC(C)=O)CCc1cc(OC)c(OC)c(OC)c13
Activity [1]: Active
IC50 (MCF7): 190 nM
IC50 (PC-3): 250 nM

COC1=C[C@H]2C3=C([C@@H](ON2c2ccccn2)C1=O)[C@@H](NC(C)=O)CCc1cc(OC)c(OC)c(OC)c13
Activity [1]: Active
IC50 (MCF7): 17 nM
IC50 (PC-3): 28 nM

COc1cc2c(c(OC)c1OC)-c1ccc(OC)c(=O)cc1[C@@H](NC(C)=O)CC2 [COLCHICINE]
Activity [1]: Active
IC50 (PC-3): 20 nM
